The subject of one assay is NSCLC cell line H23. Description: MTS assay of in vitro resistance to cisplatin and carboplatin, with KDR siRNA knockdown. The assay is classed as cell-based. As to conditions: for decrease in IC50 caused by knockdown of KDR: H23 cells, siKDR knockdown versus untransfected, P<0.05; for IC50: MTS assay, 72 h drug exposure. Here is the method:
Cisplatin and carboplatin sensitivity was determined by MTS (3-(4,5-dimethylthiazol-2-yl)-5-(3-carboxymethoxyphenyl)-2-(4-sulfophenyl)-2H-tetrazolium, inner salt) assay for each cell line and the concentration required for 50% growth inhibition (IC50) was determined.
NSCLC cells were transfected with siRNA targeting KDR and control siRNA (OriGene Technology, Md., USA) at a final concentration of 10 nM using Lipofectamine RNAiMAX (Invitrogen, CA, USA) according to the manufacturer's instructions. Medium was replaced after 24 h. To verify the knockdown efficiency, mRNA and protein of transfected cells were collected for real-time RT-PCR and Western blot analyses.
The assessment of in vitro resistance to cisplatin and carboplatin was determined by the MTS assay. NSCLC cell lines were seeded in octuplicate at a density of 2,000 per well in 96-well plates. The following day, cells were treated with cisplatin and carboplatin at various concentrations ranging from 0 to 120 μmol/L for cisplatin and 0 to 200 μmol/L for carboplatin. After 72 h of drug exposure, 20 μL of MTS solution was added per well. Cells were incubated for 1-4 hours at 37° C. and read at a wavelength of 490 nm.
To investigate the role of KDR CNG and VEGFR-2 overexpression in resistance to both cisplatin and carboplatin, siRNA was utilized to knockdown KDR expression in H23 and H461 NSCLC cell lines, which contain 6-9 KDR gene copies. […] To evaluate the effect of KDR overexpression on sensitivity to cisplatin and carboplatin, the expression of KDR was inhibited by transfecting H23 and H461 cells with control siRNA or siRNA targeting KDR and then treating the cells with increasing concentrations of the chemotherapy drugs. Cell viability was evaluated by MTS assay.
A general note: Tetrazolium assays rely on reduction of a dye to a coloured formazan, in cell work by metabolically active cells.

Assay [1] has as its system HIF-1α-regulated proteins (EZH2, Met, phosphorylated Met). Description: Changes in HIF-1α-regulated proteins in VEGFR amplified cell lines. The note with it: H23 and Calu1 cells (VEGFR CNGs). The assay is classed as cell-based.
Experimental: Two VEGFR amplified cell lines, H23 and Calu1, were treated with the VEGFR pathway inhibitor bevacizumab and evaluated for changes in proteins regulated by HIF-1α.
In addition, two VEGFR amplified cell lines, H23 and Calu1, were treated with the VEGFR pathway inhibitor bevacizumab and changes in proteins regulated by HIF-1α were evaluated.
The subject of a further assay is HIF-1α. As to conditions: H23 cells (KDR CNG+), ELISA. A general note: An ELISA detects its analyte on a solid surface through an enzyme-linked reagent.
The subject of another assay is H23 cells. As to conditions: which harbor VEGFR (KDR) CNGs.
The mark [2] stands for this setting: untransfected (non-transfected) H23 cells.

The term IC50 denotes the concentration at which inhibition is half-maximal. A higher IC50 goes with weaker potency. Turning to `N.N.[Cl][Pt][Cl]` [cisplatin], the “decrease in IC50 caused by knockdown of KDR” value with NSCLC cell line H23 is recorded as 1.9 fold. For the same compound, the IC50 in the assay with NSCLC cell line H23 (siKDR knockdown H23 cells) is 53 µM; in the assay with NSCLC cell line H23 (setting [2]), 97.9 µM.

bevacizumab: in assay [1], the EZH2 protein result is “decreased”, the Met protein entry is “decreased” and the “phosphorylated Met” value was “decreased”.

For the compound `Cc1ccc(NC(=O)c2ccc(CN3CCN(C)CC3)cc2)cc1Nc1nccc(-c2cccnc2)n1` [imatinib], the HIF-1α levels result with HIF-1α is recorded as “did not affect”. The cell migration result with H23 cells is listed as “does not inhibit cellular migration”.

As for `N.N.O=C([O-])C1(C(=O)[O-])CCC1.[Pt+2]` [carboplatin], the “decrease in IC50 caused by knockdown of KDR” value in the assay with NSCLC cell line H23 amounted to 3.5 fold. Also, the half-maximal inhibitory concentration (IC50) turned out to be 27.9 µM with NSCLC cell line H23 (siKDR knockdown H23 cells) and 97 µM in the assay with NSCLC cell line H23 (setting [2]).

For the origin of these results see patent US20130230511A1, “BIOMARKERS FOR RESPONSE TO TYROSINE KINASE PATHWAY INHIBITORS IN CANCER” (BOARD OF REGENTS, THE UNIVERSITY OF TEXAS SYSTEM, priority 2012, published 2013).
